Where two headings read alike, the source gives them in different places.
Experiments:
[1] = target: T1, human cloned 5-HT2A receptor (Homo sapiens, UniProt P28223); experiment: In vitro binding affinity for 5-HT2A receptor (radioligand binding)
T1 construct: expressed in transfected cells; host or cells: L929 cells
Experimental: During the incubation, the radioligands bind to the receptor. When equilibrium of binding is reached, the receptor bound radioactivity is separated from the non-bound radioactivity, and the receptor bound activity is counted. The interaction of the test compounds with the receptors is assessed in competition binding experiments. Various concentrations of the test compound are added to the incubation mixture containing the tissue preparation and the radioligand. Binding of the radioligand will be inhibited by the test compound in proportion to its binding affinity and its concentration. The affinities of the compounds for the 5-HT2 receptors were measured by means of radioligand binding studies conducted with: (a) human cloned 5-HT2A receptor, expressed in L929 cells using [^125I]R91150 as radioligand and (b) human cloned 5-HT2C receptor, expressed in CHO cells using [^3H]mesulergine as radioligand.

[2] = target: T2, human cloned 5-HT2C receptor (Homo sapiens, UniProt P28335); experiment: In vitro binding affinity for 5-HT2C receptor (radioligand binding)
T2 construct: expressed in transfected cells; host or cells: CHO cells
T2 sequence (P28335 33-458): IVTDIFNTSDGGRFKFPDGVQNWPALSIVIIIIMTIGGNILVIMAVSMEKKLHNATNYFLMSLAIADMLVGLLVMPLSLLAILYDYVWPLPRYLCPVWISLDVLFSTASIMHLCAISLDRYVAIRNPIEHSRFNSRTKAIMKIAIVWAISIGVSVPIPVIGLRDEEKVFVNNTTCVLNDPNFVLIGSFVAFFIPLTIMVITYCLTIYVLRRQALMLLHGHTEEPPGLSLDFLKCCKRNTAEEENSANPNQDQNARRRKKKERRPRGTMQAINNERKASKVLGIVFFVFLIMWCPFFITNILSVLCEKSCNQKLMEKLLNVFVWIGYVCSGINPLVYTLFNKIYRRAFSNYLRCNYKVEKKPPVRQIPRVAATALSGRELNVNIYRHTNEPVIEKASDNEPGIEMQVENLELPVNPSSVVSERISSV
Experimental: During the incubation, the radioligands bind to the receptor. When equilibrium of binding is reached, the receptor bound radioactivity is separated from the non-bound radioactivity, and the receptor bound activity is counted. The interaction of the test compounds with the receptors is assessed in competition binding experiments. Various concentrations of the test compound are added to the incubation mixture containing the tissue preparation and the radioligand. Binding of the radioligand will be inhibited by the test compound in proportion to its binding affinity and its concentration.

[3] = target: T3, NET (Rattus norvegicus, UniProt Q9WTR4); experiment: In vitro determination of NET reuptake inhibition ([3H]Nixosetine binding, rat brain cortex)
T3 construct: Cortex from rat brain was collected and homogenised; from tissue; host or cells: rat brain cortex
Experimental: Cortex from rat brain was collected and homogenised using an Ultra-Turrax T25 and a Dual homogeniser in ice-cold homogenising buffer containing Tris, NaCl and KCl (50 mM, 120 mM and 5 mM, respectively, pH 7.4) prior to dilution to an appropriate protein concentration optimised for specific and non-specific binding. […] Membrane-bound activity was detected by filtration through a Packard Filtermate harvester onto GF/B Unifilterplates, washed with ice-cold Tris-HCl buffer, containing NaCl and KCl (50 mM, 120 mM and 4 mM; pH 7.4; 6×0.5 ml). Filters were allowed to dry for 24 h before adding scintillation fluid. Scintillation fluid was allowed to saturate filters for 24 h before counting in a Topcount scintillation counter. Percentage specific bound and competition binding curves were calculated using S-Plus software (Insightful).

[4] = target: T4, human Dopamine D2L receptor (Homo sapiens, UniProt P14416); experiment: In vitro binding affinity for human D2L receptor ([3H]Spiperone)
T4 construct: expressed in transfected cells; host or cells: CHO cells
Experimental: Frozen membranes of human Dopamine D2L receptor-transfected CHO cells were thawed, briefly homogenised using an Ultra-Turrax T25 homogeniser and diluted in Tris-HCl assay buffer containing NaCl, CaCl2, MgCl2, KCl (50, 120, 2, 1, and 5 mM respectively, adjusted to pH 7.7 with HCl) to an appropriate protein concentration optimised for specific and non-specific binding. Radioligand [^3H]Spiperone (NEN, specific activity ˜70 Ci/mmol) was diluted in assay buffer at a concentration of 2 nmol/L. Prepared radioligand (50 μl), along with 50 μl of either the 10% DMSO control, Butaclamol (10^−6 mol/l final concentration), or compound of interest, was then incubated (30 min, 37° C.) with 400 μl of the prepared membrane solution. Membrane-bound activity was filtered through a Packard Filtermate harvester onto GF/B Unifilterplates and washed with ice-cold Tris-HCl buffer (50 mM; pH 7.7; 6×0.5 ml). Filters were allowed to dry before adding scintillation fluid and counting in a Topcount scintillation counter. Percentage specific bound and competition binding curves were calculated using S-Plus software (Insightful).

[5] = human cloned 5-HT2A receptor, radioligand binding, read-out: h-5HT2A (converted)
[6] = human cloned 5-HT2C receptor, radioligand binding, read-out: h-5HT2C (converted)
[7] = rat brain cortex, [3H]Nixosetine, read-out: NET Reuptake Inhibition (converted)
[8] = human D2L receptor-transfected CHO cell membranes, [3H]Spiperone, read-out: h-D2L (converted)
[9] = h-5HT2A, human cloned 5-HT2A receptor, radioligand binding
[10] = h-5HT2C, human cloned 5-HT2C receptor, radioligand binding
[11] = NET Reuptake Inhibition, rat brain cortex, [3H]Nixosetine
[12] = h-D2L, human D2L receptor-transfected CHO cell membranes, [3H]Spiperone

T4 sequence (P14416 whole entry): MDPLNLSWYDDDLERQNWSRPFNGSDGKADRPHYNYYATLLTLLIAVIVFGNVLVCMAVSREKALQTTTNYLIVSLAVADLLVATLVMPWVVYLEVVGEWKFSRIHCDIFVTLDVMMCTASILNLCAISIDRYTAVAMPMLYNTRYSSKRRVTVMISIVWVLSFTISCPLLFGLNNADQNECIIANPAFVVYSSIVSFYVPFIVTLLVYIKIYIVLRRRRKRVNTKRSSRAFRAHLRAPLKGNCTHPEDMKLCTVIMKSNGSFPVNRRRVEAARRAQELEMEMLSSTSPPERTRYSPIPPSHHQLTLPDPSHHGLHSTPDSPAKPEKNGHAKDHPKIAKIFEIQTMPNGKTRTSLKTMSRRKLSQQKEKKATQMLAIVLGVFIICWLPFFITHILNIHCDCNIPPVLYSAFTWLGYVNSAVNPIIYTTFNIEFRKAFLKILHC
T3 sequence (Q9WTR4 1-597): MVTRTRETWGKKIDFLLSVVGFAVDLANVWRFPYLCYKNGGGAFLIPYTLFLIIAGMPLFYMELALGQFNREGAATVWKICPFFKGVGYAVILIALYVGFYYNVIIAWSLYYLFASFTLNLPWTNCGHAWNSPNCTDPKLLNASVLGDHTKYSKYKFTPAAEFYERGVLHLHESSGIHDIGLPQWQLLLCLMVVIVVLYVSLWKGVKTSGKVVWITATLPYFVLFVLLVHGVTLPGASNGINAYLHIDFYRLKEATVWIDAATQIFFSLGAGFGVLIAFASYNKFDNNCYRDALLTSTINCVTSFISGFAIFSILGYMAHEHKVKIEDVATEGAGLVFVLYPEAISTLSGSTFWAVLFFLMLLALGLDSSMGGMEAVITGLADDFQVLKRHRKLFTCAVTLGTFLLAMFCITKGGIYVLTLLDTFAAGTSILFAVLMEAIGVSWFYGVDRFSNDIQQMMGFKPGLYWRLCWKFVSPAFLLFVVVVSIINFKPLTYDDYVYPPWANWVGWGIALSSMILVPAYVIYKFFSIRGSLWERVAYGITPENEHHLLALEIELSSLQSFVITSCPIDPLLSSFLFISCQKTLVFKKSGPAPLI
T1 sequence (P28223 whole entry): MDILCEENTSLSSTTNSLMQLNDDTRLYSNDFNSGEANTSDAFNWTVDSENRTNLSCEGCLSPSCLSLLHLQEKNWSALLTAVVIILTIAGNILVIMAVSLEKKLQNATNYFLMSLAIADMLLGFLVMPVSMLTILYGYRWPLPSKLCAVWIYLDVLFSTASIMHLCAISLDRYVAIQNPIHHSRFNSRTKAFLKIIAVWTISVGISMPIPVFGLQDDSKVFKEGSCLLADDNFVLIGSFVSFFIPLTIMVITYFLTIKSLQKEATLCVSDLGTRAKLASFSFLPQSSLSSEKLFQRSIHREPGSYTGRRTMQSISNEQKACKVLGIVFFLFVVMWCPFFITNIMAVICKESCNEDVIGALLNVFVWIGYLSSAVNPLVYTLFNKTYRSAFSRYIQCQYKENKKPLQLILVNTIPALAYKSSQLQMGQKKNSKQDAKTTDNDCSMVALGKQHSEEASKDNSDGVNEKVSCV

SMILES: CN(C/C=C/c1ccccc1)C[C@H]1CC2=C(O1)c1cc(F)ccc1Cc1ccccc12 [Compound 110]
- IC50 ([1]; h-5HT2A): 12.6 nM
- IC50 ([2]; h-5HT2C): 5.01 nM
- IC50 ([3]; NET Reuptake Inhibition): 1000 nM
- IC50 ([4]; h-D2L): 158 nM

SMILES: O=C(OCc1ccccc1)N1CCN(CC2CC3=C(O2)c2cc(F)ccc2Cc2ccccc23)CC1 (stereo not shown) [Compound 69]
- IC50 [1, 5]: 501 nM
- IC50 [2, 6]: 1000 nM
- IC50 [3, 7]: 7940 nM
- IC50 [4, 8]: 1260 nM

SMILES: O=C(OCc1ccccc1)N1CCN(CC2CC3=C(O2)c2cc(F)ccc2Oc2ccccc23)CC1 (stereo not shown) [Compound 70]
- IC50 [1, 5]: 1000 nM
- IC50 [2, 6]: 631 nM
- IC50 [3, 7]: > 10000 nM
- IC50 [4, 8]: 251 nM

SMILES: O=C(NCc1ccccc1)N1CCN(CC2CC3=C(O2)c2cc(F)ccc2Cc2ccccc23)CC1 (stereo not shown) [Compound 87]
- IC50 [1, 5]: 631 nM
- IC50 [2, 6]: 100 nM
- IC50 [3, 7]: 7940 nM
- IC50 [4, 8]: 794 nM

SMILES: CNC[C@@H]1CC2=C(O1)c1ccccc1[C@@H](C)c1ccccc12 (racemic) [Compound 9]
- IC50 [1, 5]: 100 nM
- IC50 [2, 6]: 50.1 nM
- IC50 [3, 7]: 79.4 nM
- IC50 [4, 8]: 3980 nM

SMILES: CCCn1c2c(c3ccccc31)C1=C(CC(CNC)O1)c1ccccc1S2 (stereo not shown) [Compound 93]
- IC50 [1, 5]: 25.1 nM
- IC50 [2, 6]: 10 nM
- IC50 [3, 7]: 100 nM
- IC50 [4, 8]: 398 nM

SMILES: CNCC1CC2=C(O1)c1ccccc1Cc1ccc(C#N)cc12 (stereo not shown) [Compound 133]
- IC50 [1, 5]: 25.1 nM
- IC50 [3, 7]: 316 nM
- IC50 [4, 8]: 2040 nM

SMILES: COc1ccc(OC(=O)N2CCN(CC3CC4=C(O3)c3cc(F)ccc3Oc3ccccc34)CC2)cc1 (stereo not shown) [Compound 68]
- IC50 [1, 9]: 63.1 nM
- IC50 [2, 10]: 251 nM
- IC50 [3, 11]: 1580 nM
- IC50 [4, 12]: 794 nM

SMILES: O=S(=O)(c1ccccc1)N1CCN(CC2CC3=C(O2)c2cc(F)ccc2Cc2ccccc23)CC1 (stereo not shown) [Compound 48]
- IC50 [1, 5]: 398 nM
- IC50 [2, 6]: 200 nM
- IC50 [3, 7]: > 10000 nM
- IC50 [4, 8]: 3160 nM

SMILES: O=C(NCc1ccccc1)N1CCN(CC2CC3=C(O2)c2cc(F)ccc2Oc2ccccc23)CC1 (stereo not shown) [Compound 88]
- IC50 [1, 5]: 158 nM
- IC50 [2, 6]: 100 nM
- IC50 [3, 7]: 1580 nM
- IC50 [4, 8]: 1260 nM

SMILES: CNCC1CC2=C(O1)c1cc(F)ccc1Oc1ccccc12 (stereo not shown) [Compound 12]
- IC50 [1, 5]: 12.6 nM
- IC50 [2, 6]: 7.94 nM
- IC50 [3, 7]: 39.8 nM
- IC50 [4, 8]: 200 nM

SMILES: C=CCn1c2c(c3ccccc31)C1=C(CC(CNC)O1)c1ccccc1S2 (stereo not shown) [Compound 95]
- IC50 [1, 5]: 7.94 nM
- IC50 [2, 6]: 6.31 nM
- IC50 [3, 7]: 158 nM
- IC50 [4, 8]: 398 nM

SMILES: CCOC(=O)CN(C)C[C@H]1CC2=C(O1)c1cc(F)ccc1Cc1ccccc12 [Compound 113]
- IC50 [1, 5]: 15.8 nM
- IC50 [2, 6]: 10 nM
- IC50 [3, 7]: 3980 nM
- IC50 [4, 8]: 1580 nM

SMILES: COC(=O)CC(=O)N(C)C[C@H]1CC2=C(O1)c1cc(F)ccc1Cc1ccccc12 [Compound 112]
- IC50 [1, 5]: 200 nM
- IC50 [2, 6]: 63.1 nM
- IC50 [3, 7]: 7940 nM

SMILES: CNCC1CC2=C(O1)c1c(F)cccc1Cc1ccccc12 (stereo not shown) [Compound 136]
- IC50 [1, 5]: 25.1 nM
- IC50 [2, 6]: 2 nM
- IC50 [3, 7]: 100 nM
- IC50 [4, 8]: 1580 nM

SMILES: CNC(=O)CN(C)C[C@H]1CC2=C(O1)c1cc(F)ccc1Cc1ccccc12 [Compound 116]
- IC50 [1, 5]: 10 nM
- IC50 [2, 6]: 7.94 nM
- IC50 [3, 7]: 2510 nM
- IC50 [4, 8]: 3160 nM

SMILES: CN(C)CCC1CC2=C(O1)c1cc(F)ccc1Cc1ccccc12 (stereo not shown) [Compound 137]
- IC50 [1, 5]: 12.6 nM
- IC50 [2, 6]: 3.16 nM
- IC50 [3, 7]: 158 nM
- IC50 [4, 8]: 1580 nM

SMILES: CNC[C@@H]1CC2=C(O1)c1cc(F)ccc1Cc1ccccc12 [Compound 4]
- IC50 ([1]; human cloned 5-HT2A receptor expressed in L929 cells, [125I]R91150, read-out: h-5HT2A (converted)): 0.501 nM
- IC50 [1, 5]: 0.501 nM
- IC50 ([2]; human cloned 5-HT2C receptor expressed in CHO cells, [3H]mesulergine, read-out: h-5HT2C (converted)): 0.631 nM
- IC50 [2, 6]: 0.631 nM
- IC50 [3, 7]: 10 nM
- IC50 [4, 8]: 63.1 nM

SMILES: O=C(Oc1ccccc1)N1CCN(CC2CC3=C(O2)c2cc(F)ccc2Cc2ccccc23)CC1 (stereo not shown) [Compound 65]
- IC50 [1, 9]: 50.1 nM
- IC50 [2, 10]: 126 nM
- IC50 [3, 11]: 3160 nM
- IC50 [4, 12]: 1000 nM

SMILES: CC(C)OC(=O)N1CCN(CC2CC3=C(O2)c2cc(F)ccc2Cc2ccccc23)CC1 (stereo not shown) [Compound 63]
- IC50 [1, 5]: 251 nM
- IC50 [2, 6]: 501 nM
- IC50 [3, 7]: > 10000 nM
- IC50 [4, 8]: 3980 nM

SMILES: CCS(=O)(=O)N1CCN(CC2CC3=C(O2)c2cc(F)ccc2Oc2ccccc23)CC1 (stereo not shown) [Compound 47]
- IC50 [1, 5]: 158 nM
- IC50 [2, 6]: 200 nM
- IC50 [3, 7]: 398 nM
- IC50 [4, 8]: 1260 nM

SMILES: CNCC1CC2=C(O1)c1cc(F)ccc1Cc1ccccc12 (stereo not shown) [Compound 2]
- IC50 [1, 5]: 0.631 nM
- IC50 [2, 6]: 1 nM
- IC50 [3, 7]: 15.8 nM
- IC50 [4, 8]: 79.4 nM

SMILES: CNCC1CC2=C(O1)c1ccc(F)cc1Cc1ccccc12 (stereo not shown) [Compound 135]
- IC50 [1, 5]: 5.01 nM
- IC50 [2, 6]: 2.51 nM
- IC50 [3, 7]: 631 nM
- IC50 [4, 8]: 3160 nM

SMILES: CCS(=O)(=O)N(C)CC1CC2=C(O1)c1cc(F)ccc1Cc1ccccc12 (stereo not shown) [Compound 127]
- IC50 [1, 5]: 200 nM
- IC50 [2, 6]: 10 nM
- IC50 [3, 7]: > 10000 nM
- IC50 [4, 8]: > 10000 nM

SMILES: CNCC1CC2=C(O1)c1ccccc1C(C)c1ccccc12 (stereo not shown) [Compound 7]
- IC50 [1, 5]: 50.1 nM
- IC50 [2, 6]: 20 nM
- IC50 [3, 7]: 63.1 nM
- IC50 [4, 8]: 2000 nM

SMILES: CNCC1CC2=C(O1)c1ccccc1Cc1cccc(F)c12 (stereo not shown) [Compound 132]
- IC50 [1, 5]: 10 nM
- IC50 [2, 6]: 3.98 nM
- IC50 [3, 7]: 63.1 nM

SMILES: CN(C)C1CCN(CC2CC3=C(O2)c2cc(F)ccc2Cc2ccccc23)C1 (stereo not shown) [Compound 35]
- IC50 [2, 6]: 15.8 nM
- IC50 [3, 7]: > 10000 nM
- IC50 [4, 8]: 39.8 nM
